What was measured:
human EAAT3 = target: T1, human EAAT3 (Homo sapiens, UniProt P43005); assay: FLIPR Membrane Potential (FMP) assay, antagonist potency at human EAAT3; assay type: cell-based; details: HEK-293 cells stably expressing human EAAT3; L-glutamate as agonist at EC80; antagonist applied 15 min before agonist; Kb by Cheng-Prusoff from IC50
T1 construct: expressed in transfected cells
T1 sequence (P43005 1-524): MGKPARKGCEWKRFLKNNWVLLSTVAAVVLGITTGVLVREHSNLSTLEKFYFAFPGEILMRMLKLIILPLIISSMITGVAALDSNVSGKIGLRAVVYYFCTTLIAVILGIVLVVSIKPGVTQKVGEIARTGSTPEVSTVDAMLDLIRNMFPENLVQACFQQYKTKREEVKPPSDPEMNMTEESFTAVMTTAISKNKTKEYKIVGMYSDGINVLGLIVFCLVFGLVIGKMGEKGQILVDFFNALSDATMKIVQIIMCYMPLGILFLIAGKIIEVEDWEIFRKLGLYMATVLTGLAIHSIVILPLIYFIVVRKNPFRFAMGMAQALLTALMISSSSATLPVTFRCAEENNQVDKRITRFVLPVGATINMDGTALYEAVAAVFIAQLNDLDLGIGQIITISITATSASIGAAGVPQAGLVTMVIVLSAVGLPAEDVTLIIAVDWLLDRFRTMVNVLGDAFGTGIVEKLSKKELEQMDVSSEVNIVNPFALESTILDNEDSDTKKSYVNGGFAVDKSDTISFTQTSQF
Method: The FLIPR Membrane Potential (FMP) Assay
HEK-293 cells stably expressing human EAAT3 were seeded at 55 000 cells/well in growth medium (DMEM glutamate free (Invitrogen 11960-044), 1% Pen Strep (10 ml/1 GIBCO BRL N°15140-023), 10% FCS non dialysed heat inactivated, 5 mg/l puromycin) in poly-D-lysine treated 96-well black microtiter plates with clear-bottom. After 24 h, the growth medium was removed and 100 μl/well of Krebs buffer (140 mM NaCl, 4.7 mM KCl, 2.5 mM CaCl2, 1.2 mM MgCl2, 11 mM HEPES, 10 mM D-glucose, pH=7.4) added. The cells were then loaded by adding 100 μl/well FMP assay dye (FLIPR Membrane Potential assay reagent, Molecular Devices). The 96-well plates were then incubated at 37° C. for 1 h. The depolarization of the cells will cause more dye to enter in the cells, where it will bind to intracellular proteins and lipids and cause an increase in the fluorescence signal. Antagonist potency at human EAAT3 was determined by using L-glutamate as agonist at a concentration which gives 80% of the maximum response. The antagonists were applied 15 min before the application of the agonist L-glutamate. The assays were performed at room temperature and measurements done by using a Fluorometric Imaging Plate Reader (FLIPR, Molecular Devices) and filter #2. Responses were measured as peak increase in fluorescence minus basal (i.e. fluorescence without addition of L-glutamate). Kb was determined using the Cheng-Prusoff equation Kb=IC50/[1+(A/EC50)], where IC50 is the concentration of the antagonist producing 50% inhibition, A is the concentration of the agonist against which the IC50 is being determined (at EC80) and EC50 is the concentration of the agonist producing 50% […].

SMILES	Kb (human EAAT3)	melting point
Cc1nccn1-c1cc(C(=O)NC(C)(C)C2CC2)cc(-c2ccc(Cl)cc2)c1 [Example 11, 3-(4-Chlorophenyl)-N-(2-cyclopropylpropan-2-yl)-5-(2-methylimidazol-1-yl)-benzamide]	170 nM	180 °C
CC(C)c1nccn1-c1cc(C(=O)NC(C)(C)C2CC2)cc(-c2ccc(Cl)cc2)c1 [Example 8, 3-(4-Chlorophenyl)-N-(2-cyclopropylpropan-2-yl)-5-(2-propan-2-ylimidazol-1-yl)-benzamide]	230 nM	189 °C
Cc1ccc(-c2cc(C(=O)NC(C)(C)C)cc(-n3ccnc3C(C)C)c2)cc1 [Example 26, N-tert-Butyl-3-(4-methylphenyl)-5-(2-propan-2-ylimidazol-1-yl)-benzamide]	130 nM	104 °C
CC(C)c1nccn1-c1cc(C(=O)NC2(C)CCS(=O)(=O)C2)cc(-c2ccc(Cl)cc2)c1 (racemic) [Example 38, (RS)-3-(4-Chlorophenyl)-N-(3-methyl-1,1-dioxothiolan-3-yl)-5-(2-propan-2-ylimidazol-1-yl)-benzamide]	220 nM	112 °C
CC(C)(C)NC(=O)c1cc(-c2ccc(C(F)(F)F)cc2)cc(-n2ccnc2C(C)(C)O)c1 [Example 35, N-tert-Butyl-3-[2-(2-hydroxypropan-2-yl)-imidazol-1-yl]-5-[4-(trifluoromethyl)-phenyl]-benzamide]	210 nM	173.5 °C
CC(C)(NC(=O)c1cc(-c2ccc(F)cc2)cc(-n2ccnc2C2CC2)c1)C1CC1 [Example 20, 3-(2-Cyclopropylimidazol-1-yl)-N-(2-cyclopropylpropan-2-yl)-5-(4-fluorophenyl)-benzamide]	33 nM	83 °C
CC(C)c1nccn1-c1cc(C(=O)NC(C)(C)C2CC2)cc(-c2ccc(F)cc2)c1 [Example 17, N-(2-Cyclopropylpropan-2-yl)-3-(4-fluorophenyl)-5-(2-propan-2-ylimidazol-1-yl)-benzamide]	120 nM	80 °C
Cc1nccn1-c1cc(C(=O)NC(C)(C)C)cc(-c2ccc(F)cc2)c1 [Example 12, N-tert-Butyl-3-(4-fluorophenyl)-5-(2-methylimidazol-1-yl)-benzamide]	130 nM	208 °C
CC(C)(NC(=O)c1cc(-c2ccc(Cl)cc2)cc(-n2ccnc2C2CC2)c1)C1CC1 [Example 13, 3-(4-Chlorophenyl)-5-(2-cyclopropylimidazol-1-yl)-N-(2-cyclopropyl-propan-2-yl)-benzamide]	310 nM	90 °C
CC(C)c1nccn1-c1cc(C(=O)NC(C)(C)C)cc(-c2ccc(F)c(F)c2)c1 [Example 23, N-tert-Butyl-3-(3,4-difluorophenyl)-5-(2-propan-2-ylimidazol-1-yl)-benzamide]	150 nM	91.5 °C
CC(C)(NC(=O)c1cc(-c2ccc(Cl)cc2)cc(-n2ccnc2C2CC2)c1)C(F)(F)F [Example 15, 3-(4-Chlorophenyl)-5-(2-cyclopropylimidazol-1-yl)-N-(1,1,1-trifluoro-2-methylpropan-2-yl)-benzamide]	150 nM	101.5 °C
CCC(C)(C)NC(=O)c1cc(-c2ccc(Cl)cc2)cc(-n2ccnc2C2CC2)c1 [Example 37, 3-(4-Chlorophenyl)-5-(2-cyclopropylimidazol-1-yl)-N-(2-methylbutan-2-yl)-benzamide]	170 nM	85 °C
CCc1nccn1-c1cc(C(=O)NC(C)(C)C2CC2)cc(-c2ccc(F)cc2)c1 [Example 18, N-(2-Cyclopropylpropan-2-yl)-3-(2-ethylimidazol-1-yl)-5-(4-fluorophenyl)-benzamide]	170 nM	70 °C
CC(C)c1nccn1-c1cc(C(=O)NC(C)(C)C)cc(-c2ccc(Cl)c(F)c2)c1 [Example 24, N-tert-Butyl-3-(4-chloro-3-fluorophenyl)-5-(2-propan-2-ylimidazol-1-yl)-benzamide]	190 nM	98 °C
